Several values for one entry are separate records, joined by “and”; a condition that tells them apart may be missing. Equal entries are not always repeated.
Key:
A2aR = A2aR (Homo sapiens, UniProt P29274); experiment: Antagonism of A2aR activity at the cellular level; format: cell-based
Excerpt: Meanwhile, ILB-2109 had high selectivity for A2aR (compared with A1, A2b and A3 receptors, the selectivity was 18.9 times, 40.7 times and 3424.7 times respectively).

[1] = tested on: CYP3A, CYP2B6, CYP2C8, CYP2C9, CYP1A2, CYP2C19 and CYP2D6; experiment: Metabolic enzyme phenotyping for production of metabolite M4; format: in vitro ADME
[2] = tested on: MC38 mouse colon cancer xenograft; experiment: MC38 mouse colon cancer xenograft model, single agent and combination with anti-CTLA-4 antibody; format: in vivo, C57BL/6 mice; details: for Tumor Volume (mm^3) (Day 9): Day 9 after inoculation; for Tumor Volume (mm^3) (Day 9) / Tumor Volume (mm^3) / Tumor Volume (mm^3) (Day 15) / Tumor Weight / Tumor Volume (mm^3) (Day 12): Mean ± SEM; for Tumor Volume (mm^3) (Day 9) / Tumor Volume (mm^3) / Tumor Volume (mm^3) (Day 15) / Number of Animals with Tumor Volume > 250mm^3 / T/C (%) (Day 21) / Tumor Volume (mm^3) (Day 12) / TGI (%) (Day 21): n=8; for Tumor Volume (mm^3) (Day 15): Day 15 after inoculation; for Number of Animals with Tumor Volume > 250mm^3 / T/C (%) (Day 21) / TGI (%) (Day 21): Day 21; for Tumor Weight: end of experiment (D23); for Tumor Volume (mm^3) (Day 12): head prints Day 12; for TGI (%) (Day 21): tumor volume based; for TGITW (%): tumor weight based
Experimental: A total of 6 groups were set up in the experiment: vehicle control group, ILB-2109 low-dose and high-dose single-agent groups, Anti-CTLA-4 antibody single-agent group, and two dose groups of ILB-2109 and Anti-CTLA-4 in combination. Table 1. Experimental Administration Dosage and Grouping
Anti-CTLA-4 antibody was aseptically diluted to 0.5 mg/mL with DPBS and prepared immediately before administration.
ILB-2109 was formulated to 10 mg/mL with vehicle, 1% tween80 + 9% PEG400 + 90% ddwater. Specific preparation method: Prepare Vehicle 1 (10 mL Tween80, 90 mL PEG400, 900 mL ddwater), weigh 1120 mg of ILB-2109 and add into 112 mL of Vehicle 1, grind to basically uniform, then ultrasonicate for about 2-3 minutes to obtain a homogeneous suspension. An appropriate amount of the solution was diluted to 5 mg/mL with Vehicle 1 (1% Tween80 + 9% PEG400 + 90% ddwater) at a ratio of 1:1. The prepared solution was aliquoted into 5 mL EP tubes with 4 mL per tube and stored at 4°C. Prepared once a week.
48 female C57BL/6 mice were inoculated subaxillarily with 0.1 mL DPBS containing 2×10^5 MC38 cells. On the day of inoculation, mice were randomly divided into vehicle control group, ILB-2109 low-dose group and ILB-2109 high-dose group according to body weight, with 16 animals in each group. The day of inoculation was defined as D1. On D9 after inoculation, the average tumor volume of the vehicle control group reached about 64 mm^3. According to animal tumor volume and body weight, the original vehicle control group was divided into vehicle control group and Anti-CTLA-4 antibody single-agent group; the original ILB-2109 low-dose group was divided into ILB-2109 low-dose single-agent group and the combination group of low-dose ILB-2109 and anti-CTLA-4 antibody; the original ILB-2109 high-dose group was divided into ILB-2109 high-dose single-agent group and the combination group of high-dose ILB-2109 and Anti-CTLA-4 antibody. Administration was carried out for each group on the day of regrouping according to the set dosage.
Tumor volume was measured and body weight was weighed 3 times a week.
All animals were euthanized on D23 after inoculation, and tumor samples were collected and weighed.
Tumor volume was measured 3 times a week, and tumor growth inhibition TGITV (%) was calculated. The calculation formula of Tumor Volume (TV) is: TV = 1/2 × a × b^2 [formula] where a and b represent the major diameter and minor diameter of the tumor mass respectively. [formula]
Tumor weight of animals was measured during sample collection. The tumor growth inhibition was calculated according to the following formula: Tumor Growth Inhibition based on Tumor Weight TGITW(%) = (TWc−TWt)/TWc × 100% [formula] where TWt is the mean tumor weight of the treatment group, and TWc is the mean tumor weight of the vehicle control group.
All data were expressed as Mean ± SEM.
In this experiment, data on D21 after inoculation were used for statistical analysis by PRISM software. T test was used for comparison between two groups, and one-way ANOVA was used for comparison among three or more groups.

[3] = Excretion of total radioactivity in bile duct cannulated (BDC) rats; format: in vivo
CYP3A4 = experiment: In vitro hepatocyte induction assay; format: in vitro ADME; details: for induction, gene expression level: hepatocytes
Excerpt: (§1) In vitro hepatocyte induction assay was used to evaluate the effect of ILB-2109 on the enzyme activity and gene expression level of cytochrome P450 isoenzymes CYP1A2, CYP2B6 and CYP3A4.

CYP2B6 = experiment: In vitro hepatocyte induction assay; format: in vitro ADME
Excerpt: as §1

CYP1A2 = experiment: In vitro hepatocyte induction assay; format: in vitro ADME
Excerpt: as §1

[4] = ILB-2109 100 mg/kg gavage twice a day
[5] = ILB-2109 50 mg/kg gavage twice a day
[6] = BDC rats, 0-72 hours after single oral administration
[7] = hepatocytes, 0.200, 2.00 or 20.0 µM

Sequence of A2aR (P29274 whole entry): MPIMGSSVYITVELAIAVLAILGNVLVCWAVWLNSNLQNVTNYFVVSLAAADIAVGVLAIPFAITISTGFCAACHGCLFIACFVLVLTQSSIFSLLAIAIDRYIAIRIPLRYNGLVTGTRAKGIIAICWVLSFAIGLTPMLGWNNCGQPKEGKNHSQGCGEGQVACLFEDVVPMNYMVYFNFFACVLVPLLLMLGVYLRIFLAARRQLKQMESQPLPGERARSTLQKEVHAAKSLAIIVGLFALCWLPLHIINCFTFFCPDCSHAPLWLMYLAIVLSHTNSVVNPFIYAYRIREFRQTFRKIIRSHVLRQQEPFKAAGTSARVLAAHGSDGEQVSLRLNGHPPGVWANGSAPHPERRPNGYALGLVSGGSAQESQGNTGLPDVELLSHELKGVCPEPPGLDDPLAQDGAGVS

## Cc1cc(-c2c(-c3ccccc3)nc(N)n3nc(CO)nc23)cc(C(F)(F)F)n1 [ILB-2109]
A2aR; antagonism of A2aR activity
  IC50: 0.43 nM
A2aR; tumor physiological equivalent conditions (NECA 5 µM)
  IC50: 1.08 nM
[1]
  role of CYP2B6, CYP2C8 and CYP2C9 in production of metabolite M4: may play a secondary role
  role of other isoenzymes (CYP1A2, CYP2C19 and CYP2D6) in production of metabolite M4: little or no effect
[2]; ILB-2109 50 mg/kg gavage twice a day, 50 mg/kg
  Tumor Volume (mm^3) (Day 9): 63±6 mm^3 and 63.65±6 mm^3
[2]; [4]
  Tumor Volume (mm^3) (Day 9): 58±4 mm^3
  Number of Animals with Tumor Volume > 250mm^3: 5/8
  T/C (%) (Day 21): 52.76%
  Tumor Weight: 0.6318 ± 0.1355 g
  Tumor Volume (mm^3) (Day 12): 369±54 mm^3
  TGI (%) (Day 21): 47.24%
  TGITW (%): 38%
[2]; Day 11 after inoculation, ILB-2109 50 mg/kg gavage twice a day
  Tumor Volume (mm^3): 115±13 mm^3
[2]; Day 11 after inoculation, ILB-2109 100 mg/kg gavage twice a day
  Tumor Volume (mm^3): 78±8 mm^3
[2]; Day 13 after inoculation, ILB-2109 50 mg/kg gavage twice a day
  Tumor Volume (mm^3): 143±20 mm^3
[2]; Day 13 after inoculation, ILB-2109 100 mg/kg gavage twice a day
  Tumor Volume (mm^3): 105±11 mm^3
[2]; [5]
  Tumor Volume (mm^3) (Day 15): 225±34 mm^3
  Number of Animals with Tumor Volume > 250mm^3: 8/8
  T/C (%) (Day 21): 70.61%
  Tumor Weight: 1.7030 ± 0.1419 g
  Tumor Volume (mm^3) (Day 12): 494±87 mm^3
  TGI (%) (Day 21): 29.39%
  TGITW (%): 31%
[2]; ILB-2109 100 mg/kg gavage twice a day, 100 mg/kg
  Tumor Volume (mm^3) (Day 15): 257±18 mm^3 and 157±18 mm^3
[2]; Day 17 after inoculation, ILB-2109 50 mg/kg gavage twice a day
  Tumor Volume (mm^3): 269±41 mm^3
[2]; Day 17 after inoculation, ILB-2109 100 mg/kg gavage twice a day
  Tumor Volume (mm^3): 207±25 mm^3
[2]; Day 21 after inoculation, ILB-2109 50 mg/kg gavage twice a day
  Tumor Volume (mm^3): 494±87 mm^3
[2]; Day 21 after inoculation, ILB-2109 100 mg/kg gavage twice a day
  Tumor Volume (mm^3): 369±54 mm^3
[3]; [6]
  average of total radioactivity recovery: 93.63%
  cage washing and cleaning fluid, share of the administered dose: 0.85%
  feces, share of the administered dose: 14.45%
  total biliary excretion, share of the administered dose: 66.17%
  urine, share of the administered dose: 12.16%
[3]; from total radioactive excretion of bile and urine in BDC rats
  oral absorption rate: at least 78.33%
CYP3A4; 2.00 µM, Donor 1 and Donor 3
  induction, gene expression level: inducer
CYP3A4; 20.0 µM, Donor 1, 2 and 3
  induction, gene expression level: inducer
CYP3A4; [7]
  induction, enzyme activity: not an inducer
CYP2B6; hepatocytes, 20.0 µM, Donor 1
  induction, gene expression level: inducer
CYP2B6; [7]
  induction, enzyme activity: not an inducer
CYP1A2; hepatocytes, 20.0 µM, Donor 1
  induction, gene expression level: inducer
CYP1A2; [7]
  induction, enzyme activity: not an inducer

From EP4813990A1, “COMPOUND FOR TREATING CANCER” (INNOLAKE BIOPHARMA (HANGZHOU) CO., LTD., priority 2023, dated 2025)
